Experimental findings from ChEMBL document CHEMBL1201862, “PubChem BioAssay data set” (2004) are described below.

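Growth conditions: 96-well plates. Treatment: test compound, 48 hours, 5 concentrations. Analysis: linear interpolation between bracketing concentrations; unreached endpoints set to highest concentration. At the GI50, growth is halved.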 Calls of active or inactive are those of the source. No stated cut-off is given here; in the data, active = GI50 up to about 1.1 µM and inactive = higher. Bounds are passed on as bounds.

Among the test systems are 786-0; HCT-15; K562; MOLT-4; Malme-3M; NCI-H226; NCI-H522; OVCAR-3; OVCAR-8; SF-268; SF-539; SK-MEL-2; TK-10; A498; CAKI-1; HCC 2998.
Common to all, as to assay: NCI anticancer screen, dose series, 48 h

Turning to `Nc1nc(-c2ccco2)cc(-c2ccco2)n1`, the GI50 with 786-0 is > 100 µM (inactive); with HCT-15 it was > 100 µM; in the assay with K562, > 100 µM (inactive); in the assay with MOLT-4, > 100 µM (inactive); in the assay on Malme-3M, > 100 µM (inactive); in the assay with NCI-H226, 71.3 µM (inactive). Besides, the GI50 with NCI-H522, in the assay with OVCAR-3, in the assay on OVCAR-8, in the assay on SF-268, with SF-539 and in the assay with SK-MEL-2 was > 100 µM (inactive) throughout. Moreover, in the assay on TK-10, the GI50 is > 100 µM (inactive).
Regarding `Cn1ncnc1CCc1ccccc1`, the GI50 is > 100 µM (inactive) in the assay on 786-0; > 100 µM (inactive) in the assay on A498; > 100 µM (inactive) in the assay on CAKI-1; > 100 µM in the assay with HCT-15; > 100 µM (inactive) in the assay on K562; > 100 µM (inactive) in the assay with MOLT-4. The GI50 in the assay on Malme-3M, in the assay on NCI-H226, in the assay with NCI-H522, with OVCAR-3, with OVCAR-8 and in the assay on SF-268 was > 100 µM (inactive) in each case. Further, the GI50 in the assay on SF-539, in the assay with SK-MEL-2 and in the assay with TK-10 was > 100 µM (inactive) throughout.
In the case of `N/N=C1\c2ccccc2C2/C(=N\N)c3ccccc3C12` (stereo not drawn), the GI50 was > 100 µM (inactive) with 786-0; > 100 µM (inactive) in the assay with CAKI-1; > 100 µM (inactive) in the assay on HCC 2998; > 100 µM in the assay with HCT-15; > 100 µM (inactive) in the assay on K562; > 100 µM (inactive) in the assay on MOLT-4. The GI50 in the assay on Malme-3M, with NCI-H522, in the assay with OVCAR-3, with OVCAR-8, in the assay with SF-268 and in the assay with SF-539 was > 100 µM (inactive) each time. For the same compound, the GI50 in the assay on SK-MEL-2 and with TK-10 was > 100 µM (inactive) each time.
For `CCC(C)CNC1=C(NC(C)=O)C(=O)c2ccccc2C1=O` (stereo not drawn), the GI50 with 786-0 is > 100 µM (inactive); in the assay with HCC 2998 it was > 100 µM (inactive); in the assay on HCT-15, > 100 µM; with K562, > 100 µM (inactive); in the assay on MOLT-4, > 100 µM (inactive); with Malme-3M it was 35.5 µM (inactive). For the same compound, the GI50 was > 100 µM (inactive) with NCI-H226; 78.2 µM (inactive) in the assay with NCI-H522; 55.7 µM (inactive) in the assay on OVCAR-3; > 100 µM (inactive) in the assay on OVCAR-8; > 100 µM (inactive) in the assay on SF-268; > 100 µM (inactive) in the assay with SF-539. For the same compound, the GI50 in the assay on SK-MEL-2 and in the assay with TK-10 was > 100 µM (inactive) in each case.
With `NS(=O)(=O)c1ccc(NC(=O)c2cccn3c(=O)c4ccccc4nc23)cc1`, the GI50 in the assay with 786-0 is > 100 µM (inactive); in the assay with A498 it was > 100 µM (inactive); in the assay with CAKI-1, > 100 µM (inactive); in the assay on K562, > 100 µM (inactive); with MOLT-4, 80.2 µM (inactive); with Malme-3M, > 100 µM (inactive). Besides, the GI50 in the assay with NCI-H226, with NCI-H522, in the assay with OVCAR-3, with OVCAR-8, in the assay on SF-268 and in the assay with SF-539 was > 100 µM (inactive) throughout. The GI50 in the assay with TK-10 was > 100 µM (inactive).
As for `C/C=C(/CCC1NCCC2c3ccccc3NC12)[Si](C)(C)C` (stereo not drawn), the GI50 was 11.3 µM (inactive) in the assay with 786-0; 10.8 µM (inactive) with CAKI-1; 2.02 µM (inactive) in the assay with HCC 2998; 12.4 µM with HCT-15; 2.75 µM (inactive) in the assay with K562; 3.17 µM (inactive) in the assay with MOLT-4. Moreover, the GI50 was 13.3 µM (inactive) with NCI-H226; 16 µM (inactive) in the assay on NCI-H522; 11.4 µM (inactive) with OVCAR-3; 7.98 µM (inactive) with OVCAR-8; 9.31 µM (inactive) in the assay with SF-268; 15.8 µM (inactive) with SF-539. For the same compound, the GI50 with SK-MEL-2 was 13.8 µM (inactive); in the assay on TK-10, 15 µM (inactive).
Take `COc1ccc(O)cc1C=O`: the GI50 was > 100 µM (inactive) with 786-0; > 100 µM (inactive) in the assay on A498; > 100 µM (inactive) in the assay on HCC 2998; 37.6 µM in the assay with HCT-15; 33.9 µM (inactive) in the assay on K562; 67.6 µM (inactive) in the assay on MOLT-4. Moreover, the GI50 in the assay with Malme-3M was 46.3 µM (inactive); with OVCAR-3 it was > 100 µM (inactive); in the assay on OVCAR-8, > 100 µM (inactive); with SF-268, > 100 µM (inactive); in the assay on SF-539 it was > 100 µM (inactive); with TK-10 it was > 100 µM (inactive).
As to `N#CCCN(CCC#N)c1ccc(/C=C2\N=C(COc3ccc(Cl)cc3Cl)OC2=O)cc1`, the GI50 is > 100 µM (inactive) in the assay with 786-0; > 100 µM (inactive) with A498; > 100 µM (inactive) in the assay on CAKI-1; > 100 µM (inactive) in the assay with HCC 2998; > 100 µM in the assay on HCT-15; > 100 µM (inactive) with K562. Further, the GI50 is > 100 µM (inactive) in the assay on MOLT-4; > 100 µM (inactive) in the assay with Malme-3M; 29.9 µM (inactive) in the assay on NCI-H522; > 100 µM (inactive) with OVCAR-3; > 100 µM (inactive) in the assay with OVCAR-8; > 100 µM (inactive) in the assay with SF-268. Further, the GI50 in the assay with SF-539, with SK-MEL-2 and with TK-10 was > 100 µM (inactive) in each case.
As to `COc1ccc(C2S/C(=C\c3cccc(O)c3)C(=O)N2NC(=O)Cc2ccccc2)cc1` (stereo not drawn), the GI50 in the assay with 786-0 is > 100 µM (inactive); in the assay with A498 it was > 100 µM (inactive); with CAKI-1 it was > 100 µM (inactive); with HCT-15, > 100 µM; in the assay on K562 it was > 100 µM (inactive); with MOLT-4, > 100 µM (inactive). Further, the GI50 in the assay on Malme-3M, in the assay with NCI-H226, with NCI-H522, with OVCAR-8, in the assay on SF-268 and with SF-539 was > 100 µM (inactive) throughout. The GI50 in the assay on SK-MEL-2 and with TK-10 was > 100 µM (inactive) in each case.
In the case of `CN(C)c1ccc(/C=C(\C#N)C(=O)c2ccccc2)cc1Br`, the GI50 in the assay with 786-0 was > 100 µM (inactive); in the assay with CAKI-1, > 100 µM (inactive); in the assay on HCC 2998, > 100 µM (inactive); with K562, 59.8 µM (inactive); in the assay with MOLT-4, 36.2 µM (inactive); in the assay with Malme-3M, > 100 µM (inactive). For the same compound, the GI50 in the assay on NCI-H226 is 39.3 µM (inactive); with NCI-H522 it was > 100 µM (inactive); in the assay on OVCAR-3, > 100 µM (inactive); with OVCAR-8 it was > 100 µM (inactive); in the assay on SF-268, > 100 µM (inactive); in the assay with SF-539, > 100 µM (inactive). Besides, the GI50 with SK-MEL-2 and in the assay on TK-10 was > 100 µM (inactive) each time.
Turning to `CCOc1ccccc1/N=N/c1ccc2oc(=O)c(C(=O)Nc3cccc(C)c3)cc2c1`, the GI50 in the assay with 786-0 was 34 µM (inactive); in the assay with A498, 42.5 µM (inactive); in the assay on CAKI-1 it was 49.8 µM (inactive); in the assay on HCC 2998, 31.3 µM (inactive); in the assay on HCT-15, 25.4 µM; in the assay on K562 it was 23.3 µM (inactive). Further, the GI50 in the assay with MOLT-4 is 19.9 µM (inactive); in the assay with Malme-3M, 29.9 µM (inactive); in the assay with NCI-H522, 17.9 µM (inactive); with OVCAR-3, 20 µM (inactive); in the assay on OVCAR-8, 24.7 µM (inactive); with SF-268 it was 29.4 µM (inactive). The GI50 in the assay with SF-539 was 25.8 µM (inactive); in the assay with SK-MEL-2 it was 19.8 µM (inactive); in the assay with TK-10, 48.3 µM (inactive).
As for `O=C1c2c(c3c4ccccc4[nH]c3c3[nH]c4ccccc4c23)C(=O)N1Cc1ccccc1`, the GI50 is 3.13 µM (inactive) with 786-0; 3.65 µM (inactive) with CAKI-1; 4.27 µM (inactive) in the assay with HCC 2998; 2.06 µM in the assay with HCT-15; 3.05 µM (inactive) in the assay with K562; 2.14 µM (inactive) in the assay on MOLT-4. In addition, the GI50 in the assay on Malme-3M was 3.54 µM (inactive); in the assay with NCI-H226 it was 2.1 µM (inactive); with NCI-H522 it was 1.77 µM (inactive); in the assay on OVCAR-3, 2.81 µM (inactive); with OVCAR-8, 4.47 µM (inactive); in the assay with SF-268, 3.01 µM (inactive). Moreover, the values for the GI50 in the assay with SF-539, in the assay on SK-MEL-2 and in the assay on TK-10 were 2.37 µM (inactive), 3.2 µM (inactive) and 4.25 µM (inactive), respectively.
Turning to `COC(=O)CC[C@]12C[C@]13CC[C@]1(C)C4C(C)C[C@]5(CC(C)C(=O)O5)OC4CC1(C)C3CCC2C(C)(C)O` (stereo partly drawn), the GI50 in the assay with 786-0 was > 100 µM (inactive); in the assay with A498, > 100 µM (inactive); in the assay on HCC 2998, 51.5 µM (inactive); with HCT-15 it was 50.9 µM; with K562, 49.9 µM (inactive); in the assay with Malme-3M, > 100 µM (inactive). The GI50 in the assay on NCI-H522 was 62.1 µM (inactive); in the assay with OVCAR-3, 76 µM (inactive); in the assay with OVCAR-8, 41.7 µM (inactive); in the assay on SF-268, 81.1 µM (inactive); in the assay with SF-539, 50.6 µM (inactive); in the assay with SK-MEL-2, 26.7 µM (inactive). Further, the GI50 with TK-10 is > 100 µM (inactive).
In the case of `C[C@@H]1C[C@]2(C[C@@H](C)C3[C@@H](CC4(C)[C@@H]5CCC6C(C)(C)OC(=O)C=C[C@]67C[C@@]5(CC[C@]34C)OO7)O2)OC1=O` (stereo partly drawn), the GI50 was > 100 µM (inactive) with 786-0; > 100 µM (inactive) with HCC 2998; > 100 µM in the assay with HCT-15; 28.1 µM (inactive) with K562; 37.9 µM (inactive) with Malme-3M; 24.8 µM (inactive) in the assay on NCI-H226. In addition, the GI50 is 29.6 µM (inactive) in the assay with NCI-H522; 24.1 µM (inactive) in the assay on OVCAR-3; 67.5 µM (inactive) in the assay with OVCAR-8; 35.8 µM (inactive) with SF-539; 50.4 µM (inactive) in the assay on SK-MEL-2; 52.1 µM (inactive) with TK-10.
